Activity calls are given as the source filed them. Cut-off read from the data, not from the text of the source, for most assays here: actives have a measured EC50 and inactives only a lower limit.
Tests used:
[1] = HepG2 cell cytotoxicity, dose response, cytotoxicity control, ATP luminescence, cherry-pick, activator set 2 (AID 1053143); type: functional, cell-based
[2] = biological target: T1, Streptokinase A (Streptococcus pyogenes serotype M1, UniProt P10520); experiment: S. pyogenes streptokinase expression inhibitors, potency, dose response, plasminogen activation absorbance, OD405 (AID 1914); type: functional, Streptococcus pyogenes M1 GAS;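 note: secreted streptokinase activity via plasminogen activation per viability signal from cell pellet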
T1 sequence (P10520 whole entry): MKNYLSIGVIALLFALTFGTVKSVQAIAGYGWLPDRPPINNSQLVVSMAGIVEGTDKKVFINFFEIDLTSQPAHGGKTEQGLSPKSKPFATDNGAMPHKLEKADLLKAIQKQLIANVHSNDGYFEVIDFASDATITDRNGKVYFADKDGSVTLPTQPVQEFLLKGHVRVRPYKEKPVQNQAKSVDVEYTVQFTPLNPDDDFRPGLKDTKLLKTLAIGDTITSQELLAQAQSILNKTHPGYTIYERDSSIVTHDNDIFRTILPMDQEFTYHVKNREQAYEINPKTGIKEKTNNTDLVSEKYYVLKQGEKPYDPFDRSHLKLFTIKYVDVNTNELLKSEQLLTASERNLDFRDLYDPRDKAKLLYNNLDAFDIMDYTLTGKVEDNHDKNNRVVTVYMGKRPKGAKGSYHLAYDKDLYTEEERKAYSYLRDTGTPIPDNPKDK

[3] = cells; type: functional, cell-based
[4] = test system: HeLa; experiment: HeLa cell cytotoxicity, dose response, cytotoxicity control for MITF activator project, CellTiter-Glo luminescence, cherry-pick samples (AID 540259); type: functional, cell-based; conditions: Homo sapiens
[5] = biological target: T2, Nuclear receptor subfamily 0 group B member 1 (Homo sapiens, UniProt P51843); type: functional, cell-based
T2 sequence (P51843 whole entry): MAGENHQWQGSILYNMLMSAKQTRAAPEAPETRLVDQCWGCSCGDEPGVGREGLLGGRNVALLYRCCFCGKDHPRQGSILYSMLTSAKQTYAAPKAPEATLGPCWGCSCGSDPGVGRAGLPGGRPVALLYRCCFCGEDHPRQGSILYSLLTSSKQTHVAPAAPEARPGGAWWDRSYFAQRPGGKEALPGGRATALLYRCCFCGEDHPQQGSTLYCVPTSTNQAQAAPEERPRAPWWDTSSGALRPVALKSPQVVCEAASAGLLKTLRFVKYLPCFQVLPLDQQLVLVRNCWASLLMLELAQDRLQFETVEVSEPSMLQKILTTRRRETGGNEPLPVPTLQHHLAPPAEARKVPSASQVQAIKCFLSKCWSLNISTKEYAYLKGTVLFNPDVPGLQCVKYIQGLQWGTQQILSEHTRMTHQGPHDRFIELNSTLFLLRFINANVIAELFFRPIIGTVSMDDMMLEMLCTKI

[6] = test system: Streptococcus; experiment: Group A Streptococcus viability loss, dose response, counter-screen for streptokinase expression inhibitor project, luminescence, BacTiterGlo (AID 1915); type: functional, organism-based;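 note: potency for reduction of bacterial viability or growth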
[7] = Luminescence Cell-Based Dose Confirmation HTS to Identify Inhibitors of Platelet Dense Granule Release. [Related pubchem assays: 1663 (Primary HTS), 1678 (Summary of Project)]; type: functional
[8] = biological target: Luciferin 4-monooxygenase (Photinus pyralis, UniProt P08659); experiment: firefly luciferase enzyme inhibitors, dose response, biochemical, luminescence (AID 1891)
Sequence of Luciferin 4-monooxygenase (P08659 whole entry): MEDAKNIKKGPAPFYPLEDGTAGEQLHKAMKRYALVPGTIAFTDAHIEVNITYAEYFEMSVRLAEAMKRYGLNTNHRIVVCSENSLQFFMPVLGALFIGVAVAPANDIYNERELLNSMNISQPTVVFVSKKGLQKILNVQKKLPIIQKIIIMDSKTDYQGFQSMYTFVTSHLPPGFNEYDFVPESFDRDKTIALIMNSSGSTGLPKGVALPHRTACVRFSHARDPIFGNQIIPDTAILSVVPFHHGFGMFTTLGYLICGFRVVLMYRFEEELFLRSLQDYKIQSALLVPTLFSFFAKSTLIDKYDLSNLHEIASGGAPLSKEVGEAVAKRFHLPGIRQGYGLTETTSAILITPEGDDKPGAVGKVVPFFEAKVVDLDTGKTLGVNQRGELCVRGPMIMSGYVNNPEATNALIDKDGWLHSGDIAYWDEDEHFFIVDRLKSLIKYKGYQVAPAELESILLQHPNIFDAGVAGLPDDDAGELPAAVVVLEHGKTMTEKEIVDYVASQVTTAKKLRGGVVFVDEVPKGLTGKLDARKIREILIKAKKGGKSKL

[9] = biological target: T2, Nuclear receptor subfamily 0 group B member 1; experiment: Luminescence-based cell-based high throughput dose response assay for inhibitors of the orphan nuclear receptor subfamily 0, group B, member 1 (DAX1; NR0B1). [Related pubchem assays (depositor defined):AID504766, AID504790]; type: functional
[10] = test system: HEK293; experiment: cells; type: functional, cell-based; conditions: Homo sapiens
[11] = biological target: T3, Rac GTPase-activating protein 1 (Homo sapiens, UniProt Q9H0H5); experiment: MgcRacGAP GTPase-activating activity inhibitors, confirmation, biochemical, ADP Hunter fluorescence, primary and confirmatory (AID 624330); type: functional
T3 sequence (Q9H0H5 whole entry): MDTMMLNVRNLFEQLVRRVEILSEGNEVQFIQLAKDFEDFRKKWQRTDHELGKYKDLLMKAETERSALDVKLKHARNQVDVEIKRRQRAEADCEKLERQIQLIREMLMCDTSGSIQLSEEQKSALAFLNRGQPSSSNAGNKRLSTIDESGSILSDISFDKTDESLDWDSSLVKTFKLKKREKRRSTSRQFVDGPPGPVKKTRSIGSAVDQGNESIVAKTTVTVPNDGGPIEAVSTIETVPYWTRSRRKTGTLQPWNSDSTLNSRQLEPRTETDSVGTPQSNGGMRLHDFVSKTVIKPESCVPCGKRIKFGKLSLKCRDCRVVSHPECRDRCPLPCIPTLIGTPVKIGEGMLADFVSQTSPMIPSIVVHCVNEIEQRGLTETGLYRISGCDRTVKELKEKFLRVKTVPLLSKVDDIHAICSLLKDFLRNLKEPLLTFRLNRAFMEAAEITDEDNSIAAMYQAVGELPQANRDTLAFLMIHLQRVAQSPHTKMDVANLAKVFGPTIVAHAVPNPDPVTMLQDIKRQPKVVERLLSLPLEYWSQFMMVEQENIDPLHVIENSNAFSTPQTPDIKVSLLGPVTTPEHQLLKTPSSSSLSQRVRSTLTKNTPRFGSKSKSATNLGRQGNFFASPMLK

[12] = biological target: ATP-dependent molecular chaperone HSP82 (Candida albicans (strain WO-1) (Yeast), UniProt C4YTQ8); experiment: loss of DOC-induced GRE-beta-galactosidase reporter signal, dose response, Hsp90 inhibitor project, S. cerevisiae, luminescence (AID 2400); type: functional, cell-based;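 note: beta-galactosidase luminescence from glucocorticoid response element reporter as proxy for Hsp90 function; inhibitor potency where signal loss means Hsp90 inhibition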
Sequence of ATP-dependent molecular chaperone HSP82 (C4YTQ8 whole entry): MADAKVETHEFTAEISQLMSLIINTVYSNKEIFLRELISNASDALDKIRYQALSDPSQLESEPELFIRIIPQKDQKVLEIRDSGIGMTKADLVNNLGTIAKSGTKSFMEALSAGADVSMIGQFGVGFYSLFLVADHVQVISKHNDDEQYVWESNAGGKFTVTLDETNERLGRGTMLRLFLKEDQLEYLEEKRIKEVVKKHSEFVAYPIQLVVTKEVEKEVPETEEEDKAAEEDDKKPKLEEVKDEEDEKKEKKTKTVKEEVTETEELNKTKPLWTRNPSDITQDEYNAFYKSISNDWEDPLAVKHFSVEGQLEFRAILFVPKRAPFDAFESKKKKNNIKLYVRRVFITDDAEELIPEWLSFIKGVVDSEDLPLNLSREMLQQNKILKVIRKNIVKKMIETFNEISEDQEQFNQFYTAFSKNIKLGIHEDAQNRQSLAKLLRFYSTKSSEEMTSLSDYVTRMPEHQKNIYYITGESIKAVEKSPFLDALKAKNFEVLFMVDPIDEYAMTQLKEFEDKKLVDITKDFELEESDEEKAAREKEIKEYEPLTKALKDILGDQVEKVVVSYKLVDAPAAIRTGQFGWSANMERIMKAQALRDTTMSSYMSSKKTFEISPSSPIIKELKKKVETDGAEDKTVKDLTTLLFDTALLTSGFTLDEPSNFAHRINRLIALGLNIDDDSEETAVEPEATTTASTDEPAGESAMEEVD

[13] = biological target: Serine/threonine-protein phosphatase (Candida dubliniensis (strain CD36 / CBS 7987 / NCPF 3949 / NRRLY-17841) (Yeast), UniProt B9W6M3); experiment: calcineurin pathway inhibitors in yeast reporter, dose response, S. cerevisiae, CDRE-lacZ, luminescence, secondary (AID 2388); type: functional, cell-based;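 note: yeast reporter cells carrying a calcineurin-responsive lacZ construct stimulated with calcium chloride; luminescent beta-galactosidase reporter signal in whole cells rather than isolated phosphatase activity; potency for inhibition where a drop in reporter signal means calcineurin blockade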
Sequence of Serine/threonine-protein phosphatase (B9W6M3 whole entry): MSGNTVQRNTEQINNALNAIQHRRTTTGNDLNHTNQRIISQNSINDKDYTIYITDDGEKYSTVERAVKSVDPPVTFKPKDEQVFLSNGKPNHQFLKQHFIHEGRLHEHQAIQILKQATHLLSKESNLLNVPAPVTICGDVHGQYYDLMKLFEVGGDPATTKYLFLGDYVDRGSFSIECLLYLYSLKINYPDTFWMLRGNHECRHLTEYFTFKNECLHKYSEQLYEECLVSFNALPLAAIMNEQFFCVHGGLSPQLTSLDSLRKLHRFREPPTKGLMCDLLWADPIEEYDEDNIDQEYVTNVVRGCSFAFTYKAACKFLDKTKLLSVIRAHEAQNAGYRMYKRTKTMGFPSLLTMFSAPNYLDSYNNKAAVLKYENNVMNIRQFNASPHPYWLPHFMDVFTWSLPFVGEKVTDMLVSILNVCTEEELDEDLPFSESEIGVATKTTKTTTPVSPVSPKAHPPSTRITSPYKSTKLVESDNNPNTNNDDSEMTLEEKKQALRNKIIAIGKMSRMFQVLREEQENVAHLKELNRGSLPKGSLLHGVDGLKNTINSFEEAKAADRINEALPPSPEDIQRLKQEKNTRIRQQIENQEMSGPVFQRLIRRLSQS

[14] = NIH-3T3 fibroblast cytotoxicity, dose response, cytotoxicity control, cell-based, fluorescence, Alamar Blue, secondary assay (AID 2327); type: functional;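 note: NIH-3T3 mouse fibroblasts cultured with fluconazole at 8 µg/mL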
[15] = C. albicans growth with fluconazole, confirmation, fluorescence, retest (AID 2467); type: functional, cell-based

Question: Which results are given for `O=C(Nc1ccccc1)C(=O)Nc1ccc2c(c1)N(C(=O)C1CC1)CCC2`?
Answer: AC50 [1]: 26 µM (active); EC50 [2]: > 150 µM (not active); IC50 [3]: > 67.5 µM (inactive); AC50 [4]: 14.1 µM (active); IC50 [5]: > 67.5 µM (inactive); EC50 [6]: 25.4 µM (active); EC50 [7]: 3.74 µM (active); EC50 [8]: 1.13 µM (active)

Question: With `Cc1nc(N)nc(COc2ccccc2)n1` as the molecule, how does the IC50 [9] read?
Answer: > 67.4 µM (inactive)

Question: And the IC50 [10]?
Answer: > 67.4 µM (inactive)

Question: What does the source list for `COc1ccc(-n2c(=O)c3c4c(sc3n3c(S)nnc23)CCCC4)cc1`?
Answer: IC50 [11]: 35.7 µM (active); EC50 [12]: 4.45 µM (active); EC50 [13]: > 180 µM (inactive); EC50 [14]: 34.1 µM (inconclusive); EC50 [15]: 1.17 µM (active)

Source: ChEMBL document CHEMBL1201862, “PubChem BioAssay data set” (2004)
